From the supplement of paper PMC10307832

Legend:
Test in all cases: relative viability (nuclei count vs DMSO), 5 days (fraction); higher = more cells survive
NCI-H1395 = system: NCI-H1395
Summary of the method: (§1)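 Lung cancer cell lines were seeded in 1536-well plates and dosed by pin tool the next day, with either a single drug or a fixed anchor-drug dose combined with five library-drug doses (not always all listed) spaced in √10 steps. Five days later, one step fixed the cells and stained their nuclei (final 0.05% Triton X-100, 1% formaldehyde, 1 ug/ml Hoechst), and nuclei were counted on 4× images. Relative viability is the nuclei count in treated wells divided by the count in vehicle wells, and each value is the median of duplicate plates.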

SK-MES-1 = system: SK-MES-1
Summary of the method: as §1

NCI-H1734 = system: NCI-H1734
Summary of the method: as §1

EKVX = system: EKVX
Summary of the method: as §1

NCI-H1355 = system: NCI-H1355
Summary of the method: as §1

NCI-H1437 = system: NCI-H1437
Summary of the method: as §1

NCI-H2009 = system: NCI-H2009
Summary of the method: as §1

SK-LU-1 = system: SK-LU-1
Summary of the method: as §1

NCI-H661 = system: NCI-H661
Summary of the method: as §1

HCC-827 = system: HCC-827
Summary of the method: as §1

NCI-H1993 = system: NCI-H1993
Summary of the method: as §1

LOU-NH91 = system: LOU-NH91
Summary of the method: as §1

NCI-H1792 = system: NCI-H1792
Summary of the method: as §1

HCC-366 = system: HCC-366
Summary of the method: as §1

NCI-H647 = system: NCI-H647
Summary of the method: as §1

NCI-H2170 = system: NCI-H2170
Summary of the method: as §1

BEN = system: BEN
Summary of the method: as §1

NCI-H2087 = system: NCI-H2087
Summary of the method: as §1

HARA = system: HARA
Summary of the method: as §1

NCI-H2405 = system: NCI-H2405
Summary of the method: as §1

CCN(CC)CCCCNc1ncc2cc(-c3cc(OC)cc(OC)c3)c(NC(=O)NC(C)(C)C)nc2n1 + CS(=O)(=O)N1CCN(Cc2cc3nc(-c4cccc5[nH]ncc45)nc(N4CCOCC4)c3s2)CC1 [Pictilisib] (partner 1 µM)
relative viability (NCI-H1395; first compound 0.03162 µM): 0.486 | relative viability (NCI-H1395; first compound 0.1 µM): 0.949 | relative viability (NCI-H1395; first compound 0.3162 µM): 0.479 | relative viability (NCI-H1395; first compound 1 µM): 0.346 | relative viability (SK-MES-1; first compound 0.01 µM): 0.307 | relative viability (SK-MES-1; first compound 0.03162 µM): 0.334 | relative viability (SK-MES-1; first compound 0.1 µM): 0.406 | relative viability (SK-MES-1; first compound 0.3162 µM): 0.425 | relative viability (SK-MES-1; first compound 1 µM): 0.348 | relative viability (NCI-H1734; first compound 0.01 µM): 0.452 | relative viability (NCI-H1734; first compound 0.03162 µM): 0.424 | relative viability (NCI-H1734; first compound 0.1 µM): 0.54 | relative viability (NCI-H1734; first compound 0.3162 µM): 0.427 | relative viability (NCI-H1734; first compound 1 µM): 0.395 | relative viability (EKVX; first compound 0.01 µM): 0.437 | relative viability (EKVX; first compound 0.03162 µM): 0.455 | relative viability (EKVX; first compound 0.1 µM): 0.42 | relative viability (EKVX; first compound 0.3162 µM): 0.407 | relative viability (EKVX; first compound 1 µM): 0.465 | relative viability (NCI-H1355; first compound 0.01 µM): 0.327 | relative viability (NCI-H1355; first compound 0.03162 µM): 0.375 | relative viability (NCI-H1355; first compound 0.1 µM): 0.478 | relative viability (NCI-H1355; first compound 0.3162 µM): 0.569 | relative viability (NCI-H1355; first compound 1 µM): 0.461 | relative viability (NCI-H1437; first compound 0.01 µM): 0.544 | relative viability (NCI-H1437; first compound 0.03162 µM): 0.482 | relative viability (NCI-H1437; first compound 0.1 µM): 0.424 | relative viability (NCI-H1437; first compound 0.3162 µM): 0.395 | relative viability (NCI-H1437; first compound 1 µM): 0.392 | relative viability (NCI-H2009; first compound 0.01 µM): 0.727 | relative viability (NCI-H2009; first compound 0.03162 µM): 0.79 | relative viability (NCI-H2009; first compound 0.1 µM): 0.824 | relative viability (NCI-H2009; first compound 0.3162 µM): 0.965 | relative viability (NCI-H2009; first compound 1 µM): 0.815 | relative viability (SK-LU-1; first compound 0.01 µM): 0.483 | relative viability (SK-LU-1; first compound 0.03162 µM): 0.427 | relative viability (SK-LU-1; first compound 0.1 µM): 0.526 | relative viability (SK-LU-1; first compound 0.3162 µM): 0.527 | relative viability (SK-LU-1; first compound 1 µM): 0.393 | relative viability (NCI-H661; first compound 0.01 µM): 0.403 | relative viability (NCI-H661; first compound 0.03162 µM): 0.313 | relative viability (NCI-H661; first compound 0.1 µM): 0.434 | relative viability (NCI-H661; first compound 0.3162 µM): 0.445 | relative viability (NCI-H661; first compound 1 µM): 0.344 | relative viability (HCC-827; first compound 0.01 µM): 1.03 | relative viability (HCC-827; first compound 0.03162 µM): 0.992 | relative viability (HCC-827; first compound 0.1 µM): 0.886 | relative viability (HCC-827; first compound 0.3162 µM): 1.06 | relative viability (HCC-827; first compound 1 µM): 1.02 | relative viability (NCI-H1993; first compound 0.01 µM): 0.759 | relative viability (NCI-H1993; first compound 0.03162 µM): 0.947 | relative viability (NCI-H1993; first compound 0.1 µM): 0.861 | relative viability (NCI-H1993; first compound 0.3162 µM): 0.86 | relative viability (NCI-H1993; first compound 1 µM): 0.91 | relative viability (LOU-NH91; first compound 0.01 µM): 0.476 | relative viability (LOU-NH91; first compound 0.03162 µM): 0.494 | relative viability (LOU-NH91; first compound 0.1 µM): 0.611 | relative viability (LOU-NH91; first compound 0.3162 µM): 0.524 | relative viability (LOU-NH91; first compound 1 µM): 0.51 | relative viability (NCI-H1792; first compound 0.01 µM): 0.249 | relative viability (NCI-H1792; first compound 0.03162 µM): 0.282 | relative viability (NCI-H1792; first compound 0.1 µM): 0.241 | relative viability (NCI-H1792; first compound 0.3162 µM): 0.265 | relative viability (NCI-H1792; first compound 1 µM): 0.225 | relative viability (HCC-366; first compound 0.01 µM): 0.102 | relative viability (HCC-366; first compound 0.03162 µM): 0.177 | relative viability (HCC-366; first compound 0.1 µM): 0.207 | relative viability (HCC-366; first compound 0.3162 µM): 0.164 | relative viability (HCC-366; first compound 1 µM): 0.176 | relative viability (NCI-H647; first compound 0.03162 µM): 0.471 | relative viability (NCI-H647; first compound 0.1 µM): 0.486 | relative viability (NCI-H647; first compound 0.3162 µM): 0.465 | relative viability (NCI-H647; first compound 1 µM): 0.348 | relative viability (NCI-H2170; first compound 0.01 µM): 0.326 | relative viability (NCI-H2170; first compound 0.03162 µM): 0.27 | relative viability (NCI-H2170; first compound 0.1 µM): 0.299 | relative viability (NCI-H2170; first compound 0.3162 µM): 0.317 | relative viability (NCI-H2170; first compound 1 µM): 0.322 | relative viability (BEN; first compound 0.01 µM): 0.587 | relative viability (BEN; first compound 0.03162 µM): 0.516 | relative viability (BEN; first compound 0.1 µM): 0.525 | relative viability (BEN; first compound 0.3162 µM): 0.59 | relative viability (BEN; first compound 1 µM): 0.485 | relative viability (NCI-H2087; first compound 0.01 µM): 0.784 | relative viability (NCI-H2087; first compound 0.03162 µM): 0.827 | relative viability (NCI-H2087; first compound 0.1 µM): 0.918 | relative viability (NCI-H2087; first compound 0.3162 µM): 0.961 | relative viability (NCI-H2087; first compound 1 µM): 0.984 | relative viability (HARA; first compound 0.01 µM): 0.421 | relative viability (HARA; first compound 0.03162 µM): 0.356 | relative viability (HARA; first compound 0.1 µM): 0.307 | relative viability (HARA; first compound 0.3162 µM): 0.485 | relative viability (HARA; first compound 1 µM): 0.176 | relative viability (NCI-H2405; first compound 0.01 µM): 0.361 | relative viability (NCI-H2405; first compound 0.03162 µM): 0.412 | relative viability (NCI-H2405; first compound 0.1 µM): 0.586 | relative viability (NCI-H2405; first compound 0.3162 µM): 0.531 | relative viability (NCI-H2405; first compound 1 µM): 0.404
